# Test results from patent US20260184697A1, “EZH1/2 INHIBITOR, PREPARATION THEREOF, AND USE THEREOF IN ANTI-TUMOR THERAPY” (JIANGSU TASLY DIYI PHARMACEUTICAL CO., LTD., priority 2022, published 2026).
# pIC50: −log10 of the molar value. Like-named read-outs stand apart in the source and are kept apart here.
# How the values were obtained:
# [1] = system: H3K27Me3 methylation in Karpas-422 cells; test: H3K27Me3 cell method, inhibition of H3K27Me3 methylation (Test Example 2); format: cell-based, human; conditions: for pIC50: Karpas-422 cells, 3 days incubation, HTRF signal, read-out: Test Example 2 H3K27Me3 inhibition (Karpas-422) IC50
# Method: Karpas-422 (Nanjing Kebai, CBP60629) cells were seeded in a 96-well plate (Corning, 3894) at 15,000 cells per well in culture medium (80% 1640 (Hyclone, SH30809.01)+20% FBS (Corning, 35-081-CV)), and then added with different concentrations of compounds for treatment. The cell growth group without adding compounds is used as a positive control (maximum signal control), and the medium is used as a negative control (minimum signal control), while ensuring that in each reaction well, the final concentration of DMSO was 0.2%. Compounds and cells were incubated for 3 days in a cell culture incubator (37° C., 5% CO2). The 96-well plate was taken out from the cell culture incubator and equilibrated to room temperature, and 25 ul of cell suspension was taken out into a 384-well plate. The CCK8 (Beiyuntian, C0040) detection reagent was added, incubated at 37° C. for 1 h, and […] was detected. The rest of the cells followed the procedure of the kit EPIgeneous H3K27Me3 cellular kit (Cisbio, 62KC3PAE) to carry out experiment, read HTRF signal with BMG PHERAStar. […] By GraphPad Prism 6 with log(inhibitor)vs.response-Variable slope model simulation, the IC50 of the compound on cell activity inhibition was calculated. The fitting equation is: Y=Bottom+(Top−Bottom)/(1+10^((Log IC50−X)*HillSlope)), wherein Y represents the inhibition rate, and X represents the known concentration of the compound after Log.
# [2] = molecular target: T1, EZH1/SUZ/EED (Homo sapiens, UniProt O75530+Q15022+Q92800); test: Inhibitory effect on EZH1 by the MTase-Glo method (Test Example 1); format: biochemical; conditions: EZH1/SUZ/EED 25 nM, H3 peptide 10 μM, SAM 3 μM, 30° C. 3 h, read-out: Test Example 1 WT EZH1 IC50
# T1 construct: purchased BPS 51006
# Method: (§1) The compound was dissolved in DMSO, and the compound was serially diluted using ECHO665 and transferred to a 384-well reaction plate (Corning, 3824). A sample containing only DMSO was added as a positive control (maximum signal control) and a negative control (minimum signal control), while ensuring that the final DMSO content in each reaction well was 0.5%. The protein was configured in reaction buffer (50 mM Bicine, 0.01% Triton X-100, 1 mM DTT, 0.01% BSA, pH 7.6), such that the final reaction concentrations of EZH2/SUZ/EED (BPS, 51003) protein solution and EZH1/SUZ/EED (BPS, 51006) were 6.25 nM and 25 nM, respectively. The negative control (minimum signal control) used an equal amount of buffer instead of protein solution. The prepared protein solution was added to the 384-well reaction plate and pre-incubated at room temperature for 15 minutes. The mixture of the substrate H3 peptide fragment (custom-synthesized by GenScript, biotinylated Histone H3(21-44) peptide ([…]-GG-K(Biotin)-OH)) prepared in the reaction buffer and SAM (Promega, V7601) was added into the 384-well plate, such that the final reaction concentration of H3 peptide fragment was 10 μM, and the final concentration of SAM was 3 μM. The mixture was centrifuged at 1000 rpm for 1 min. The 384-well reaction plate was placed in a constant temperature shaker and incubate at 30° C. for 3 h at a speed of 300 rpm. Then the detection reagent was added according to the experimental process of the kit MTase-Glo (Promega, V7601) and incubated.
# (§2) After incubation, read with BMG PHERAStar. The luminescence signals obtained by positive control (maximum signal control) and negative control (minimum signal control) were normalized to obtain the inhibition rate of different concentrations of compounds. Then, the IC50 of the compound on the enzyme activity inhibition was calculated by GraphPad Prism 6 with log(inhibitor) vs. response-Variable slope model fitting. The fitting equation is: Y=Bottom+(Top−Bottom)/(1+10^((Log IC50−X)*HillSlope)), wherein Y represents the known percentage remaining enzyme activity, and X represents the known activity after Log compound concentration.
# [3] = molecular target: T2, EZH2/SUZ/EED (Homo sapiens, UniProt O75530+Q15022+Q15910); test: Inhibitory effect on EZH2 by the MTase-Glo method (Test Example 1); format: biochemical; conditions: EZH2/SUZ/EED 6.25 nM, H3 peptide 10 μM, SAM 3 μM, 30° C. 3 h, read-out: Test Example 1 WT EZH2 IC50
# T2 construct: purchased BPS 51003
# Method: as §1, §2
# T2 sequence (Q15910 2-746 limits assumed): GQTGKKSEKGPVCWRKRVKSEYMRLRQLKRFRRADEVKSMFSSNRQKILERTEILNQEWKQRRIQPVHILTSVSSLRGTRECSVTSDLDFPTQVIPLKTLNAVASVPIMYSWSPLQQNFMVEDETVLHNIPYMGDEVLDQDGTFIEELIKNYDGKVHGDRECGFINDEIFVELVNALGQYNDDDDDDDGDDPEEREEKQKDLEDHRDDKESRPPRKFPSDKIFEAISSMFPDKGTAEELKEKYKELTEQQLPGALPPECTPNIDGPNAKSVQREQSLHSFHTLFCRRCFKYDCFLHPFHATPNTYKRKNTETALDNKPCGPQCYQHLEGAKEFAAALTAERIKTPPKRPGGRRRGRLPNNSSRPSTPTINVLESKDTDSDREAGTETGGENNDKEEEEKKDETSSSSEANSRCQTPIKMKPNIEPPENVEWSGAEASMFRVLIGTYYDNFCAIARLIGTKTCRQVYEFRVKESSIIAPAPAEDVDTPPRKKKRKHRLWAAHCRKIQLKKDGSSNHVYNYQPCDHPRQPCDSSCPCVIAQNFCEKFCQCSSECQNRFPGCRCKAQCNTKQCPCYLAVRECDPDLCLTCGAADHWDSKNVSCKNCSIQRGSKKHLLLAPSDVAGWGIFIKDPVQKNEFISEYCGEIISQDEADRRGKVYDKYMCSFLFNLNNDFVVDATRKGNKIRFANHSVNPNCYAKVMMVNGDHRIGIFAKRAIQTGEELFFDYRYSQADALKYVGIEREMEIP
# T2 sequence (Q15022 2-739 partner limits assumed): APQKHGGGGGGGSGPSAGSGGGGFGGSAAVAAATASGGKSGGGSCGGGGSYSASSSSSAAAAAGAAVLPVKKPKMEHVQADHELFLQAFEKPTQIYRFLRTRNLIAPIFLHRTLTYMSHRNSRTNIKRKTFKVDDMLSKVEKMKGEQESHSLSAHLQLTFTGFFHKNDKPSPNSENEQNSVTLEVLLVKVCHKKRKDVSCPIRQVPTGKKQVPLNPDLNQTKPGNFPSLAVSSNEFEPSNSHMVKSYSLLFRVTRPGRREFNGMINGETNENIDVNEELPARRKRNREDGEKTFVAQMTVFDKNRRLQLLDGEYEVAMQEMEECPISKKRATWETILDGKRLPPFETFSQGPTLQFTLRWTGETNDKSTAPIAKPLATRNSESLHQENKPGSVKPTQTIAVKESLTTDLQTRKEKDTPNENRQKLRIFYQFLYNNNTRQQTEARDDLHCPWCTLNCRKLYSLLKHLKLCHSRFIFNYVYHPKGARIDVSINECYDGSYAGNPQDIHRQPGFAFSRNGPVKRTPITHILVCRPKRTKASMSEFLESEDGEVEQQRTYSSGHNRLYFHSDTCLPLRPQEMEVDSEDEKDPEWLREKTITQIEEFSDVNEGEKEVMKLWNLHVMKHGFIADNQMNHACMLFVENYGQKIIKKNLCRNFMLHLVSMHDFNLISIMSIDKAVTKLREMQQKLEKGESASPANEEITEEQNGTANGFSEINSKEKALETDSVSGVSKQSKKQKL
# T2 sequence (O75530 2-441 partner limits assumed): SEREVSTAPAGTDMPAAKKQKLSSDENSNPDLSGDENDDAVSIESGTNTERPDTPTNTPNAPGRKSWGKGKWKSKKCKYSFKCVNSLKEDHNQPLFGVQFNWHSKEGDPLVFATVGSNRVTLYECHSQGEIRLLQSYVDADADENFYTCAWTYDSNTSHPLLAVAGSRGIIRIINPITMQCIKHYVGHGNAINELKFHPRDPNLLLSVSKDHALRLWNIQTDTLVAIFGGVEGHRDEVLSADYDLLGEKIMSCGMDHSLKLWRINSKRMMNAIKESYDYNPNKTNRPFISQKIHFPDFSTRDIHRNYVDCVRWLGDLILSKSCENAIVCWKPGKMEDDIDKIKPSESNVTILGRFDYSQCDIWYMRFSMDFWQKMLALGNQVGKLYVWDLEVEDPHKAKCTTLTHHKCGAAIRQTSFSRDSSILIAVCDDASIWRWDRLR
# T1 sequence (Q92800 2-747 limits assumed): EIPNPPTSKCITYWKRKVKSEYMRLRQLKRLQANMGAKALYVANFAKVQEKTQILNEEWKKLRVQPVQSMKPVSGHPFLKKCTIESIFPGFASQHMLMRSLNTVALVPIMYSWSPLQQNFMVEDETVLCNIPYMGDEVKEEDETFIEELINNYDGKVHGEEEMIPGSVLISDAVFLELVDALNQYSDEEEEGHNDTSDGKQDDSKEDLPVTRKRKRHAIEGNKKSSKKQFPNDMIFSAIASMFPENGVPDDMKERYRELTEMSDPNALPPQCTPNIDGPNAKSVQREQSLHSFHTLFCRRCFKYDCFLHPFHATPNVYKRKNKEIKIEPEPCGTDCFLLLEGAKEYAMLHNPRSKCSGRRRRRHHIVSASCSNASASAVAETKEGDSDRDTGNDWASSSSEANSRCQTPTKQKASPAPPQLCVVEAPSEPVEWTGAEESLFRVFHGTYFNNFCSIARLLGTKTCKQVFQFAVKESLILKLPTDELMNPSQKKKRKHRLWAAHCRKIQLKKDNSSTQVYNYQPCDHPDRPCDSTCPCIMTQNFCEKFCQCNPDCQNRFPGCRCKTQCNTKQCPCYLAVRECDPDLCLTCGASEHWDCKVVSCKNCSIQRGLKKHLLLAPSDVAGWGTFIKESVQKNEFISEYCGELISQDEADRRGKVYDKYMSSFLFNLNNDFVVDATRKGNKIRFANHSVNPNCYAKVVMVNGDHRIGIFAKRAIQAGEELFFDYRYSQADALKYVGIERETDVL
# T1 sequence (Q15022 2-739 partner limits assumed): as the sequence (Q15022 2-739 partner limits assumed) above
# T1 sequence (O75530 2-441 partner limits assumed): as the sequence (O75530 2-441 partner limits assumed) above
Compound,"pIC50 ([1]; Homo sapiens, KARPAS-422, 72 h)",pIC50 [2],pIC50 [3],pIC50 [1],"IC50 ([1]; Homo sapiens, KARPAS-422, 72 h, read-out: Test Example 2 H3K27Me3 inhibition (Karpas-422) IC50(nM))"
"Cc1cc(C)c(CNC(=O)c2cc(Cl)c3c(c2C)OC(C2CCC(N4CC(F)(F)C4)CC2)CO3)c(=O)[nH]1 (single isomer, unassigned) [Compound 57]",< 6.00,6.59,7.66,,
"Cc1cc(C)c(CNC(=O)c2cc(Cl)c3c(c2C)OC(C2CCC(N4CC(F)(F)C4)CC2)CO3)c(=O)[nH]1 (single isomer, unassigned) [Compound 58]",,5.64,7.45,< 6.00,
"Cc1cc(C)c(CNC(=O)c2cc(Cl)c3c(c2C)OC(C2CCC(N4CC5COCC5C4)CC2)CO3)c(=O)[nH]1 (single isomer, unassigned) [Compound 59]",,8.15,8.02,6.63,
"Cc1cc(C)c(CNC(=O)c2cc(Cl)c3c(c2C)OC(C2CCC(N4CC5COCC5C4)CC2)CO3)c(=O)[nH]1 (single isomer, unassigned) [Compound 60]",,7.02,7.79,< 6.00,
"COC1CN(C2CCC(C3COc4c(Cl)cc(C(=O)NCc5c(C)cc(C)[nH]c5=O)c(C)c4O3)CC2)C1 (single isomer, unassigned) [Compound 62]",,5.84,7.66,6.30,
"Cc1cc(C)c(CNC(=O)c2cc(Cl)c3c(c2C)OC(C2CCC(NC4CC(F)C4)CC2)CO3)c(=O)[nH]1 (single isomer, unassigned) [Compound 64]",6.05,6.60,7.78,,
"Cc1cc(C)c(CNC(=O)c2cc(Cl)c3c(c2C)OC(C2CCC(N4CC(F)C4)CC2)CO3)c(=O)[nH]1 (single isomer, unassigned) [Compound 70]",6.70,6.75,7.66,,
"Cc1cc(C)c(CNC(=O)c2cc(Cl)c3c(c2C)OC(C2CCC(N4CC(OC5CC5)C4)CC2)CO3)c(=O)[nH]1 (single isomer, unassigned) [Compound 76]",,6.57,8.12,8.12,
"Cc1cc(C)c(CNC(=O)c2cc(Cl)c3c(c2C)OC(C2CCC(N4CC(OC5CC5)C4)CC2)CO3)c(=O)[nH]1 (single isomer, unassigned) [Compound 77]",,6.85,7.56,6.59,
"CON(C)C1CCC(C2COc3c(Cl)cc(C(=O)NCc4c(C)cc(C)[nH]c4=O)c(C)c3O2)CC1 (single isomer, unassigned) [Compound 78]",,,7.92,,370 nM
"Cc1cc(C)c(CNC(=O)c2cc(Cl)c3c(c2C)OC(C2CCC(N4CCOCC4)CC2)CO3)c(=O)[nH]1 (single isomer, unassigned) [Compound 81]",< 6.00,,7.51,,
COC1CN([C@H]2CC[C@H]([C@H]3COc4c(Cl)cc(C(=O)NCc5c(SC)cc(C)[nH]c5=O)c(C)c4O3)CC2)C1 [Compound 9],7.85,,8.51,,
CSc1cc(C)[nH]c(=O)c1CNC(=O)c1cc(Cl)c2c(c1C)O[C@H]([C@H]1CC[C@H](N3CC(OC4CC4)C3)CC1)CO2 [Compound 12],8.03,,8.59,,
CSc1cc(C)[nH]c(=O)c1CNC(=O)c1cc(Cl)c2c(c1C)O[C@@H]([C@H]1CC[C@H](N3CC4COCC4C3)CC1)CO2 (some centres unmarked) [Compound 15],7.00,,8.68,,
COCCN1CCC([C@H]2COc3c(Cl)cc(C(=O)NCc4c(SC)cc(C)[nH]c4=O)c(C)c3O2)CC1 [Compound 17],7.92,7.78,8.34,,
[2H]C1(OC)CN([C@H]2CC[C@@H]([C@H]3COc4c(Cl)cc(C(=O)NCc5c(SC)cc(C)[nH]c5=O)c(C)c4O3)CC2)C1 [Compound 22],8.74,8.64,8.68,,
CSc1cc(C)[nH]c(=O)c1CNC(=O)c1cc(Cl)c2c(c1C)O[C@@H](C1CCN(CCF)CC1)CO2 [Compound 24],8.01,8.04,8.35,,
CO[C@H]1CCN([C@H]2CC[C@H]([C@H]3COc4c(Cl)cc(C(=O)NCc5c(SC)cc(C)[nH]c5=O)c(C)c4O3)CC2)C1 [Compound 40],8.08,,,,
CO[C@@H]1CCN([C@H]2CC[C@H]([C@H]3COc4c(Cl)cc(C(=O)NCc5c(SC)cc(C)[nH]c5=O)c(C)c4O3)CC2)C1 [Compound 42],7.33,8.07,,,
CSc1cc(C)[nH]c(=O)c1CNC(=O)c1cc(Cl)c2c(c1C)O[C@@H]([C@H]1CC[C@H](N3CC4(CCO4)C3)CC1)CO2 [Compound 46],7.18,8.11,,,
CSc1cc(C)[nH]c(=O)c1CNC(=O)c1cc(Cl)c2c(c1C)O[C@@H]([C@H]1CC[C@H](N3CC4(CCOC4)C3)CC1)CO2 [Compound 48],7.55,8.22,,,
COC1CC2CN([C@H]3CC[C@@H]([C@H]4COc5c(Cl)cc(C(=O)NCc6c(SC)cc(C)[nH]c6=O)c(C)c5O4)CC3)CC2C1 (some centres unmarked) [Compound 49],8.55,8.66,,,
COC1CC2CN([C@H]3CC[C@H]([C@H]4COc5c(Cl)cc(C(=O)NCc6c(SC)cc(C)[nH]c6=O)c(C)c5O4)CC3)CC2C1 (some centres unmarked) [Compound 50],7.62,7.93,,,
Cc1cc(C)c(CNC(=O)c2cc(Cl)c3c(c2C)OC(C2CCC(N4CC(C(C)(C)O)C4)CC2)CO3)c(=O)[nH]1 (centres unmarked) [Compound 85],7.02,,7.98,,
Cc1cc(C)c(CNC(=O)c2cc(Cl)c3c(c2C)O[C@@H](C2CCN(CC4COC4)CC2)CO3)c(=O)[nH]1 [Compound 86],< 6.00,,7.70,,
Cc1cc(C)c(CNC(=O)c2cc(Cl)c3c(c2C)O[C@@H](C2CCN(C4COC4)CC2)CO3)c(=O)[nH]1 [Compound 88],6.51,,7.53,,
COc1cc(C)[nH]c(=O)c1CNC(=O)c1cc(Cl)c2c(c1C)O[C@@H]([C@H]1CC[C@H](N3CC(OC)C3)CC1)CO2 [Compound 98],6.34,,8.24,,
CSc1cc(C)[nH]c(=O)c1CN(C)C(=O)c1cc(Cl)c2c(c1C)O[C@@H]([C@H]1CC[C@@H](N(C)C)CC1)CO2 [Compound 128],7.36,,8.02,,
COc1cc(C)[nH]c(=O)c1CNC(=O)c1cc(Cl)c2c(c1Cl)O[C@@H]([C@H]1CC[C@@H](N3CC(OC)C3)CC1)CO2 [Compound 151],7.88,,,,
